Assay results reported in US11452717B2, “Small molecule activators of nicotinamide phosphoribosyltransferase (NAMPT) and uses thereof” (Sanford Burnham Prebys Medical Discovery Institute, priority 2017, dated 2022).

What was measured:
[1] = system: human smooth muscle cells; conditions: serial quantification of the proportion of cells with senescence-associated beta-galactosidase activity; cited from earlier work
NAMPT enzyme = NAMPT enzyme (Homo sapiens (Human), UniProt P43490); assay: Enzyme Assay and NMN Detection (NAMPT reaction, fluorescence detection of NMN); type: biochemical; conditions: NAMPT activation, NMN formation
Sequence of NAMPT enzyme (P43490 whole entry, species assumed): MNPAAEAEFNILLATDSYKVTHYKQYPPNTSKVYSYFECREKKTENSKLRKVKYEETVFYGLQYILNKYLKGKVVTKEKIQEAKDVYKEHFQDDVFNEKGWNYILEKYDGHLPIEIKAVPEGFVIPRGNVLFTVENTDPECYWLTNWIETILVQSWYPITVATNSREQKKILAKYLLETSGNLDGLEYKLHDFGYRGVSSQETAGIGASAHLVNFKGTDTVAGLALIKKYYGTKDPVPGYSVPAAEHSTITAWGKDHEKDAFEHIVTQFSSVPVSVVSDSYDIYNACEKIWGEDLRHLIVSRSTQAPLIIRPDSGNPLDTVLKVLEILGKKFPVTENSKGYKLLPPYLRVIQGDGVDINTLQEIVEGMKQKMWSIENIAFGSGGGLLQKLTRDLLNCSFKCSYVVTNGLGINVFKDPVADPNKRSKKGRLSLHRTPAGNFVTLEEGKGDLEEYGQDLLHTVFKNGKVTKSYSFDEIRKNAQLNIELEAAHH
Outline: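 NMN formed was read at ex380/em460 after acetophenone/KOH derivatization and formic acid addition, using a same-day calibration curve. Final conditions: NAMPT 16 nM, nicotinamide 5 uM, PRPP 6.25 uM, ATP 120 uM, pyrophosphatase 0.04 U/ml, pH 7.5 HEPES buffer with MgCl2 and TCEP, 2 h at room temperature.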

[2] = adult mice, specific deletion of NAMPT; administration of the NAD precursor; cited from earlier work

Row | Structure (SMILES) | EC50 (NAMPT enzyme; Table B-2) | further results
1 | O=C(/C=C/c1cccnc1)NCCCCC1CCN(C(=O)c2ccccc2)CC1 [FK866] |  | senescence in smooth muscle cells [1]: induced premature senescence
2 | CC(C)NC(=O)c1ccc(NC(=O)NCc2ccncc2)cc1 [N-Isopropyl-4-(3-(pyridin-4-ylmethyl)ureido)benzamide] | 100 to 2000 nM | 
3 | CC(C)N(c1ccc(NC(=O)NCc2ccncc2)cc1)S(=O)(=O)Cc1ccccc1 [N-Isopropyl-C-phenyl-N-[4-(3-pyridin-4-ylmethyl-ureido)-phenyl]-methanesulfonamide] | 2000 to 5000 nM | 
4 | CC(C)N(c1ccc(NC(=O)NCc2ccncc2)cc1)S(=O)(=O)c1ccccc1 [N-Isopropyl-N-[4-(3-pyridin-4-ylmethyl-ureido)-phenyl]-benzenesulfonamide] | 2000 to 5000 nM | 
5 | Cc1ccccc1CN(C)S(=O)(=O)c1ccc(NC(=O)NCc2ccncc2)cc1 [N-Methyl-N-(2-methyl-benzyl)-4-(3-pyridin-4-ylmethyl-ureido)-benzenesulfonamide] | < 100 nM | 
6 | CN(c1ccc(NC(=O)NCc2ccncc2)cc1)S(=O)(=O)c1ccccc1 [N-Methyl-N-[4-(3-pyridin-4-ylmethyl-ureido)-phenyl]-benzenesulfonamide] | 100 to 2000 nM | 
7 | O=C(NCc1cn[nH]c1)Nc1ccc(S(=O)(=O)Nc2ccccc2)cc1 [N-Phenyl-4-[3-(1H-pyrazol-4-ylmethyl)-ureido]-benzenesulfonamide] |  | EC50 (NAMPT enzyme; Table B-1): 100 to 2000 nM
8 | O=C(NCc1ccncc1)Nc1ccc(CS(=O)(=O)Nc2ccccc2)cc1 [N-Phenyl-C-[4-(3-pyridin-4-ylmethyl-ureido)-phenyl]-methanesulfonamide] | 100 to 2000 nM | 
9 | CCCNS(=O)(=O)c1ccc(NC(=O)NCc2ccncc2)cc1 [N-Propyl-4-(3-pyridin-4-ylmethyl-ureido)-benzenesulfonamide] | 100 to 2000 nM | 
10 | O=C(NCc1cnco1)Nc1ccc(NS(=O)(=O)c2ccccc2)cc1 [N-[4-(3-Oxazol-5-ylmethyl-ureido)-phenyl]-benzenesulfonamide] |  | EC50 (NAMPT enzyme; Table B-1): 100 to 2000 nM
11 | Cc1cccc(CS(=O)(=O)Nc2ccc(NC(=O)NCc3ccncc3)cc2)c1 [N-[4-(3-Pyridin-4-ylmethyl-ureido)-phenyl]-C-m-tolyl-methanesulfonamide] |  | EC50 (NAMPT enzyme; Table B-6): < 100 nM
12 | Cc1ccc(CS(=O)(=O)Nc2ccc(NC(=O)NCc3ccncc3)cc2)cc1 [N-[4-(3-Pyridin-4-ylmethyl-ureido)-phenyl]-C-p-tolyl-methanesulfonamide] |  | EC50 (NAMPT enzyme; Table B-6): < 100 nM
13 | O=C(NCc1ccncc1)Nc1ccc(NS(=O)(=O)c2ccccc2)cc1 [N-[4-(3-Pyridin-4-ylmethyl-ureido)-phenyl]-benzenesulfonamide] | < 100 nM | 
14 | CCCCNC(=O)c1ccc(NC(=O)NCc2ccncc2)cc1 [N-butyl-4-(3-(pyridin-4-ylmethyl)ureido)benzamide] | 100 to 2000 nM | 
15 | O=C(NCc1ccncc1)Nc1ccc(C(=O)NC2CCC2)cc1 [N-cyclobutyl-4-(3-(pyridin-4-ylmethyl)ureido)benzamide] | 5000 to 20000 nM | 
16 | O=C(NCc1ccncc1)Nc1ccc(C(=O)NC2CCCCC2)cc1 [N-cyclohexyl-4-(3-(pyridin-4-ylmethyl)ureido)benzamide] | 2000 to 5000 nM | 

Row | Structure (SMILES) | EC50 (NAMPT enzyme; Table B-2) | further results
17 | O=C(NCc1ccncc1)Nc1cccc(S(=O)(=O)NC2CCCC2)c1 [N-cyclopentyl-3-(3-(pyridin-4-ylmethyl)ureido)benzenesulfonamide] | > 20000 nM | 
18 | O=C(NCc1ccncc1)Nc1ccc(C(=O)NC2CCCC2)cc1 [N-cyclopentyl-4-(3-(pyridin-4-ylmethyl)ureido)benzamide] | 5000 to 20000 nM | 
19 | O=C(NCc1ccncc1)Nc1ccc(S(=O)(=O)NC2CCCC2)cc1 [N-cyclopentyl-4-(3-pyridin-4-ylmethyl-ureido)-benzenesulfonamide] | 100 to 2000 nM | 
20 | CC(C)CNC(=O)c1ccc(NC(=O)NCc2ccncc2)cc1 [N-isobutyl-4-(3-(pyridin-4-ylmethyl)ureido)benzamide] | 100 to 2000 nM | 
21 | CN(Cc1ccccc1C(F)(F)F)S(=O)(=O)c1ccc(NC(=O)NCc2ccncc2)cc1 [N-methyl-4-(3-(pyridin-4-ylmethyl)ureido)-N-(2-(trifluoromethyl)benzyl)benzenesulfonamide] | < 100 nM | 
22 | Cc1ccc(N(C)C(=O)c2ccc(NC(=O)NCc3ccncc3)cc2)cc1 [N-methyl-4-(3-(pyridin-4-ylmethyl)ureido)-N-(p-tolyl)benzamide] | 5000 to 20000 nM | 
23 | CC(C)(C)CNS(=O)(=O)c1ccc(NC(=O)NCc2ccncc2)cc1 [N-neopentyl-4-(3-pyridin-4-ylmethyl-ureido)-benzenesulfonamide] | 100 to 2000 nM | 
24 | O=C(NCc1ccncc1)Nc1ccc(C(=O)NCCc2ccccc2)cc1 [N-phenethyl-4-(3-(pyridin-4-ylmethyl)ureido)benzamide] | 100 to 2000 nM | 
25 | O=C(NCc1ccncc1)Nc1ccc(C(=O)Nc2ccccc2)cc1 [N-phenyl-4-(3-(pyridin-4-ylmethyl)ureido)benzamide] | 2000 to 5000 nM | 
26 | CCCNC(=O)c1ccc(NC(=O)NCc2ccncc2)cc1 [N-propyl-4-(3-(pyridin-4-ylmethyl)ureido)benzamide] | 2000 to 5000 nM | 
27 | O=C(NCc1cn[nH]c1)Nc1ccc(NS(=O)(=O)c2ccccc2)cc1 [N-{4-[3-(1H-Pyrazol-4-ylmethyl)-ureido]-phenyl}-benzenesulfonamide] |  | EC50 (NAMPT enzyme; Table B-1): < 100 nM
28 | O=C(NCc1ccncc1)Nc1ccc(S(=O)(=O)N2CCc3cc(C(F)(F)F)ccc3C2)cc1 [Pyridin-4-ylmethyl-3-[4-(6-trifluoromethyl-3,4-dihydro-1H-isoquinoline-2-sulfonyl)-phenyl]-urea] | 100 to 2000 nM | 
29 | O=C(NCc1ccncc1)Nc1ccc(S(=O)(=O)N2CCc3cccc(C(F)(F)F)c3C2)cc1 [Pyridin-4-ylmethyl-3-[4-(8-trifluoromethyl-3,4-dihydro-1H-isoquinoline-2-sulfonyl)-phenyl]-urea] | 100 to 2000 nM | 
30 | O=C(NCc1ccncc1)Nc1ccc(S(=O)(=O)N2CCCC2)cc1 [Pyridin-4-ylmethyl-3-[4-(pyrrolidine-1-sulfonyl)-phenyl]-urea] | 100 to 2000 nM | 
31 | O=C(NCc1ccncc1)Nc1ccc(S(=O)(=O)c2nccs2)cc1 [Pyridin-4-ylmethyl-3-[4-(thiazole-2-sulfonyl)-phenyl]-urea] |  | EC50 (NAMPT enzyme; Table B-6): 100 to 2000 nM
32 | NC(=O)c1ccc[n+]([C@@H]2O[C@H](CO)[C@@H](O)[C@H]2O)c1 [nicotinamide riboside] |  | exercise performance, mass and strength of muscle [2]: rapidly and uniformly restored

Further lines, with some results ahead:

Row | EC50 (NAMPT enzyme; Table B-2) | Structure (SMILES) | further results
33 | 100 to 2000 nM | O=C(NCc1ccncc1)Nc1ccc(S(=O)(=O)NCC2CC2)cc1 [N-Cyclopropylmethyl-4-(3-pyridin-4-ylmethyl-ureido)-benzenesulfonamide] | 
34 | 100 to 2000 nM | CC(C)NS(=O)(=O)c1ccc(NC(=O)NCc2ccncc2)cc1 [N-Isopropyl-4-(3-pyridin-4-ylmethyl-ureido)-benzenesulfonamide] | 
35 | < 100 nM | CN(Cc1ccccc1OC(F)(F)F)S(=O)(=O)c1ccc(NC(=O)NCc2ccncc2)cc1 [N-Methyl-4-(3-pyridin-4-ylmethyl-ureido)-N-(2-trifluoromethoxy-benzyl)-benzenesulfonamide] | 
36 | 2000 to 5000 nM | CNS(=O)(=O)c1ccc(NC(=O)NCc2ccncc2)cc1 [N-Methyl-4-(3-pyridin-4-ylmethyl-ureido)-benzenesulfonamide] | 
37 | 100 to 2000 nM | CN(c1ccccc1)S(=O)(=O)Cc1ccc(NC(=O)NCc2ccncc2)cc1 [N-Methyl-N-phenyl-C-[4-(3-pyridin-4-ylmethyl-ureido)-phenyl]-methanesulfonamide] | 
38 | 100 to 2000 nM | O=C(NCc1ccncc1)Nc1ccc(S(=O)(=O)Nc2ccccc2)cc1 [N-Phenyl-4-(3-pyridin-4-ylmethyl-ureido)-benzenesulfonamide] | 
39 | > 20000 nM | O=C(NCc1ccncc1)Nc1ccc(S(=O)(=O)Nc2ccccn2)cc1 [N-Pyridin-2-yl-4-(3-pyridin-4-ylmethyl-ureido)-benzenesulfonamide] | 
40 | 100 to 2000 nM | O=C(NCc1ccncc1)Nc1ccc(S(=O)(=O)NCc2ccncc2)cc1 [N-Pyridin-4-ylmethyl-4-(3-pyridin-4-ylmethyl-ureido)-benzenesulfonamide] | 
41 | 100 to 2000 nM | CN1CCN(CCNS(=O)(=O)c2ccc(NC(=O)NCc3ccncc3)cc2)CC1 [N-[2-(4-Methyl-piperazin-1-yl)-ethyl]-4-(3-pyridin-4-ylmethyl-ureido)-benzenesulfonamide] | 
42 | < 100 nM | O=C(NCc1ccccc1)Nc1ccc(NS(=O)(=O)Cc2ccccc2)cc1 [N-[4-(3-Benzyl-ureido)-phenyl]-C-phenyl-methanesulfonamide] | 
43 | 5000 to 20000 nM | O=C(NCc1ccncc1)Nc1cccc(S(=O)(=O)NCc2ccccc2)c1 [N-benzyl-3-(3-(pyridin-4-ylmethyl)ureido)benzenesulfonamide] | 
44 | 100 to 2000 nM | CN(Cc1ccccc1)C(=O)c1ccc(NC(=O)NCc2ccncc2)cc1 [N-benzyl-N-methyl-4-(3-(pyridin-4-ylmethyl)ureido)benzamide] | 
45 | 5000 to 20000 nM | CCN(C)C(=O)c1ccc(NC(=O)NCc2ccncc2)cc1 [N-ethyl-N-methyl-4-(3-(pyridin-4-ylmethyl)ureido)benzamide] | 
46 | < 100 nM | CN(c1ccc(NC(=O)NCc2ccncc2)cc1)S(=O)(=O)Cc1ccccc1 [N-methyl-C-phenyl-N-[4-(3-pyridin-4-ylmethyl-ureido)-phenyl]-methanesulfonamide] | 
47 | 5000 to 20000 nM | CCCN(C)C(=O)c1ccc(NC(=O)NCc2ccncc2)cc1 [N-methyl-N-propyl-4-(3-(pyridin-4-ylmethyl)ureido)benzamide] | 
48 | > 20000 nM | O=C(NCc1ccncc1)Nc1cccc(S(=O)(=O)NCCc2ccccc2)c1 [N-phenethyl-3-(3-(pyridin-4-ylmethyl)ureido)benzenesulfonamide] | 
